Source: ChEMBL document CHEMBL1126941, “Synthesis and evaluation of unsymmetrically substituted polyamine analogues as modulators of human spermidine/spermine-N1-acetyltransferase (SSAT) and as potential antitumor agents” (1993)

Assays:
Type in all cases: functional, Homo sapiens
SCLC [1] = assay: Tested for induction of SSAT activity in H82 SCLC cells following treatment with 10 uM BESpm
LCLC = assay: Tested for induction of SSAT activity in H157 LCLC cells following treatment with 10 uM of the BESpm
SCLC [2] = assay: Tested for induction of SSAT activity in H82 SCLC cells following treatment with 10 uM of the BESpm

Row | SMILES | SSAT (SCLC [1]) | SSAT (LCLC) | SSAT (SCLC [2])
1 | Br.Br.Br.Br.CCNCCCNCCCCNCCCNCC | 22.7 pmol/min/mg | 38300 pmol/min/mg | –
2 | Br.Br.Br.Br.C#CCNCCCNCCCNCCCNCC | – | 19100 pmol/min/mg | 19.8 pmol/min/mg
3 | Br.Br.Br.Br.CCNCCCNCCCNCCCNCC1CC1 | – | 42800 pmol/min/mg | 47.1 pmol/min/mg
